In patent publication US5210193A, “Piperazine derivatives” (American Cyanamid Company, priority 1990, dated 1993):
Values after ≈ are worked out from the molar mass of the structure shown. Like-named read-outs stand apart in the source and are kept apart here.

Key:
Assay in all cases: in vitro antibacterial MIC, agar plate dilution
Format in all cases: cell-based
Citrobacter div. K 82-24 = conditions: Citrobacter, DIV.K8224, 18 h, 35° C., read-out: MIC
How it was run: (§1)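 Agar plate dilution on Mueller-Hinton agar, inoculum approximately 10^4 CFU per organism applied with a Steers replicator. MIC (mcg/ml) is the lowest compound concentration inhibiting visible growth after 18 hours at 35° C.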

[1] = test system: Enterobacter cloacae K 84-10; conditions: Enterobacter cloacae, K8410, 18 h, 35° C., read-out: MIC
How it was run: as §1

[2] = test system: Enterobacter cloacae MOR 84-30; conditions: Enterobacter cloacae, MOR8430, 18 h, 35° C., read-out: MIC
How it was run: as §1

[3] = test system: Enterobacter cloacae VGH 84-39; conditions: Enterobacter cloacae, VGH8439, 18 h, 35° C., read-out: MIC
How it was run: as §1

[4] = test system: Escherichia coli CMC 84-11; conditions: Escherichia coli, CMC8411, 18 h, 35° C., read-out: MIC
How it was run: as §1

[5] = test system: Escherichia coli CMC 84-50; conditions: Escherichia coli, CMC8450, 18 h, 35° C., read-out: MIC
How it was run: as §1

Escherichia coli LL 311 = conditions: Escherichia coli, LL311, 18 h, 35° C., read-out: MIC
How it was run: as §1

[6] = test system: Escherichia coli MOR 84-20; conditions: 35° C.
How it was run: as §1

[7] = test system: Escherichia coli VGH 84-19; conditions: 35° C.
How it was run: as §1

[8] = test system: Klebsiella pneumoniae CMC 84-31; conditions: Klebsiella pneumoniae, CMC8431, 18 h, 35° C., read-out: MIC
How it was run: as §1

[9] = test system: Klebsiella pneumoniae IO 83-5; conditions: Klebsiella pneumoniae, IO835, 18 h, 35° C., read-out: MIC
How it was run: as §1

[10] = test system: Klebsiella pneumoniae MOR 84-24; conditions: Klebsiella pneumoniae, MOR8424, 18 h, 35° C., read-out: MIC
How it was run: as §1

[11] = test system: Morganella morganii CMC 84-37; conditions: 35° C.
How it was run: as §1

[12] = test system: Morganella morganii CMC 84-38; conditions: Morganella morganii, CMC8438, 18 h, 35° C., read-out: MIC
How it was run: as §1

[13] = test system: Morganella morganii MOR 84-45; conditions: Morganella morganii, MOR8445, 18 h, 35° C., read-out: MIC
How it was run: as §1

[14] = test system: Morganella morganii VHG 84-12; conditions: Morganella morganii, VHG8412, 18 h, Morganella morganii VHG 84-12 (VGH 84-12 for Example 131), 35° C., read-out: MIC
How it was run: as §1

[15] = test system: Proteus rettgeri CMC 84-41; conditions: Providencia rettgeri, CMC8441, 18 h, 35° C., read-out: MIC
How it was run: as §1

[16] = test system: Proteus rettgeri IO 83-21; conditions: Providencia rettgeri, IO8321, 18 h, 35° C., read-out: MIC
How it was run: as §1

[17] = test system: Providencia stuarti CMC 83-3; conditions: Providencia, CMC833, 18 h, 35° C., read-out: MIC
How it was run: as §1

[18] = test system: Pseudomonas aeruginosa CMC 83-20; conditions: Pseudomonas aeruginosa, CMC8320, 18 h, 35° C., read-out: MIC
How it was run: as §1

[19] = test system: Pseudomonas aeruginosa K 84-16; conditions: Pseudomonas aeruginosa, K8416, 18 h, 35° C., read-out: MIC
How it was run: as §1

[20] = test system: Pseudomonas aeruginosa LL-1244; conditions: Pseudomonas aeruginosa, LL1244, 18 h, 35° C., read-out: MIC
How it was run: as §1

[21] = test system: Pseudomonas aeruginosa VGH 84-3; conditions: Pseudomonas aeruginosa, VGH843, 18 h, 35° C., read-out: MIC
How it was run: as §1

[22] = test system: Pseudomonas aeruginosa VGH 84-4; conditions: Pseudomonas aeruginosa, VGH844, 18 h, 35° C., read-out: MIC
How it was run: as §1

[23] = test system: Serratia marcescens CMC 83-74; conditions: Serratia marcescens, CMC8374, 18 h, 35° C., read-out: MIC
How it was run: as §1

[24] = test system: Serratia marcescens K 84-18; conditions: Serratia marcescens, K8418, 18 h, 35° C., read-out: MIC
How it was run: as §1

[25] = test system: Serratia marcescens MOR 84-41; conditions: Serratia marcescens, MOR8441, 18 h, 35° C., read-out: MIC
How it was run: as §1

[26] = test system: Serratia marcescens VGH 84-30; conditions: Serratia marcescens, VGH8430, 18 h, 35° C., read-out: MIC
How it was run: as §1

[27] = test system: Staphylococcus aureus CMC 83-131; conditions: Staphylococcus aureus, CMC83131, 18 h, 35° C., read-out: MIC
How it was run: as §1

[28] = test system: Staphylococcus aureus K 82-26; conditions: Staphylococcus aureus, K8226, 18 h, 35° C., read-out: MIC
How it was run: as §1

[29] = test system: Staphylococcus aureus Smith; conditions: Staphylococcus aureus, 18 h, 35° C., read-out: MIC
How it was run: as §1

[30] = test system: Staphylococcus aureus VGH 84-45; conditions: Staphylococcus aureus, VGH8445, 18 h, 35° C., read-out: MIC
How it was run: as §1

[31] = test system: Staphylococcus aureus VGH 84-47; conditions: 35° C.
How it was run: as §1

[32] = test system: Streptococcus faecalis CMC 83-120; conditions: Enterococcus faecalis, CMC83120, 18 h, 35° C., read-out: MIC
How it was run: as §1

[33] = test system: Streptococcus faecalis UCI 85-19; conditions: Enterococcus faecalis, UCI8519, 18 h, 35° C., read-out: MIC
How it was run: as §1

[34] = test system: Streptococcus faecalis UCI 85-30; conditions: Enterococcus faecalis, UCI8530, 18 h, 35° C., read-out: MIC
How it was run: as §1

[35] = test system: Streptococcus faecalis VGH 84-65; conditions: Enterococcus faecalis, VGH8465, 18 h, 35° C., read-out: MIC
How it was run: as §1

[36] = test system: Streptococcus faecalis VGH 84-69; conditions: Enterococcus faecalis, VGH8469, 18 h, 35° C., read-out: MIC
How it was run: as §1

[37] = test system: Escherichia coli ATCC 25922; conditions: 35° C.
How it was run: as §1

Row | SMILES | MIC (Citrobacter div. K 82-24) [µg/mL] | MIC [1] [µg/mL] | MIC [2] [µg/mL] | MIC [3] [µg/mL] | MIC [4] [µg/mL] | MIC [5] [µg/mL] | MIC (Escherichia coli LL 311) [µg/mL] | MIC [8] [µg/mL] | MIC [9] [µg/mL] | MIC [10] [µg/mL] | MIC [12] [µg/mL] | MIC [13] [µg/mL] | MIC [14] [µg/mL] | MIC [15] [µg/mL] | MIC [16] [µg/mL] | MIC [17] [µg/mL] | MIC [18] [µg/mL] | MIC [19] [µg/mL] | MIC [20] [µg/mL] | MIC [21] [µg/mL] | other results
1 | CCn1cc(C(=O)O)c(=O)c2cc(F)c(N3CCNC(c4ccncc4)C3)c(F)c21 (stereo not drawn) [Example 127] | 2 (≈ 4.83 µM) | 2 (≈ 4.83 µM) | 8 (≈ 19.3 µM) | 2 (≈ 4.83 µM) | 0.5 (≈ 1.21 µM) | 2 (≈ 4.83 µM) | 0.5 (≈ 1.21 µM) | 2 (≈ 4.83 µM) | 4 (≈ 9.65 µM) | 4 (≈ 9.65 µM) | 2 (≈ 4.83 µM) | 2 (≈ 4.83 µM) | 4 (≈ 9.65 µM) | 1 (≈ 2.41 µM) | 4 (≈ 9.65 µM) | > 16 | > 16 | > 16 | 16 (≈ 38.6 µM) | > 16 | MIC ([6]; Escherichia coli, MOR8420, 18 h, read-out: MIC): 1 µg/mL (≈ 2.41 µM); MIC ([7]; Escherichia coli, VGH8419, 18 h, read-out: MIC): 1 µg/mL (≈ 2.41 µM); MIC ([11]; Morganella morganii, CMC8437, 18 h, read-out: MIC): 0.5 µg/mL (≈ 1.21 µM); MIC [22]: 16 µg/mL (≈ 38.6 µM); MIC [23]: > 16 µg/mL; MIC [24]: 1 µg/mL (≈ 2.41 µM); MIC [25]: 4 µg/mL (≈ 9.65 µM); MIC [26]: 32 µg/mL (≈ 77.2 µM); MIC [27]: 0.5 µg/mL (≈ 1.21 µM); MIC [28]: 8 µg/mL (≈ 19.3 µM); MIC [29]: 0.06 µg/mL (≈ 0.145 µM); MIC [30]: 0.12 µg/mL (≈ 0.29 µM); MIC ([31]; Staphylococcus aureus, VGH8447, 18 h, read-out: MIC): 0.25 µg/mL (≈ 0.603 µM); MIC [32]: 4 µg/mL (≈ 9.65 µM); MIC [33]: 4 µg/mL (≈ 9.65 µM); MIC [34]: 8 µg/mL (≈ 19.3 µM); MIC [35]: 2 µg/mL (≈ 4.83 µM); MIC [36]: 4 µg/mL (≈ 9.65 µM)
2 | O=C(O)c1cn(C2CC2)c2cc(N3CCNC(c4ccccn4)C3)c(F)cc2c1=O (stereo not drawn) [Example 128, 1-Cyclopropyl-6-fluoro-1.4-dihydro-4-oxo-7-[3-(2-pyridinyl) -1-piperazinyl]-3-quinolinecarboxylic acid] | 0.25 (≈ 0.612 µM) | 0.12 (≈ 0.294 µM) | 1 (≈ 2.45 µM) | 0.5 (≈ 1.22 µM) | 0.06 (≈ 0.147 µM) | 0.5 (≈ 1.22 µM) | 0.06 (≈ 0.147 µM) | 0.5 (≈ 1.22 µM) | 1 (≈ 2.45 µM) | 1 (≈ 2.45 µM) | 0.5 (≈ 1.22 µM) | 0.5 (≈ 1.22 µM) | 1 (≈ 2.45 µM) | 0.12 (≈ 0.294 µM) | 1 (≈ 2.45 µM) | > 16 | 16 (≈ 39.2 µM) | 16 (≈ 39.2 µM) | 8 (≈ 19.6 µM) | > 16 | MIC ([37]; 18 hours): 0.06 µg/mL (≈ 0.147 µM); MIC ([37]; Escherichia coli, ATCC25922, 18 h, read-out: MIC): 0.03 µg/mL (≈ 0.0735 µM); MIC ([6]; 18 hours): 0.25 µg/mL (≈ 0.612 µM); MIC ([7]; 18 hours): 0.25 µg/mL (≈ 0.612 µM); MIC ([11]; 18 hours): 0.25 µg/mL (≈ 0.612 µM); MIC [22]: 8 µg/mL (≈ 19.6 µM); MIC [23]: > 16 µg/mL; MIC [24]: 0.5 µg/mL (≈ 1.22 µM); MIC [25]: 1 µg/mL (≈ 2.45 µM); MIC [26]: 8 µg/mL (≈ 19.6 µM); MIC [27]: 0.5 µg/mL (≈ 1.22 µM); MIC [28]: 4 µg/mL (≈ 9.79 µM); MIC [29]: 0.06 µg/mL (≈ 0.147 µM); MIC [30]: 0.06 µg/mL (≈ 0.147 µM); MIC ([31]; 18 hours): 0.25 µg/mL (≈ 0.612 µM); MIC [32]: 4 µg/mL (≈ 9.79 µM); MIC [33]: 2 µg/mL (≈ 4.9 µM); MIC [34]: 8 µg/mL (≈ 19.6 µM); MIC [35]: 1 µg/mL (≈ 2.45 µM); MIC [36]: 4 µg/mL (≈ 9.79 µM)
